The values below come from patent EP0593765A1, “6-SUBSTITUTED LIPID A ANALOG” (priority 1991, dated 1993).

Series [1] can be described thus: Lethal toxicity by galactosamine loading. Further details: species or system C57BL mouse. The conditions noted are these: mouse, in vivo, ip; 10 mg D-galactosamine hydrochloride intraperitoneally, compound in the caudal vein immediately after; observed to the seventh day; read-out: LD₅₀ (Galactosamine load). Here is the method:
The lethal toxicity by galactosamine loading was evaluated in the following experiment [see J. Biochem., Vol. 98, 395 - 406, 1985].
To C57BL mouse (female, 7 weeks old), 10 mg of D-galactosamine hydrochloride was intraperitoneally administered, and the compound of the invention was administered in the caudal vein immediately after that.

For the next series, the system named is interleukin-1 (IL-1). The series can be described thus: IL-1 producing activity (peripheral blood monocyte fraction; supernatant measured on A375 Met-Mix cells). In kind it is cell-based, human. The conditions noted are these: 50 µg of compound, 1 × 10⁶ cells/well, 48 hours at 37°C; reciprocal of supernatant dilution showing 50% inhibition. Here is the method: The producing activity of interleukin-1 (IL-1) was determined in the following experiment [see Biochem. Biopys. Res. Comm., Vol. 154, 1189 - 1196, 1988].
From 50 mℓ of human peripheral blood, buffy coat was isolated, and peripheral blood monocyte fraction was obtained by using Lymphoprep (Wako Pharmaceutical). After hemolyzing mixed erythrocytes, cells were rinsed twice in Dulbecco's modified Eagle medium (MEM), and suspended in the RPMI 1640 medium containing 5% fetal cow serum (FCS) and 2.5 × 10⁻⁵ M 2-mercaptoethanol. The cells (1 × 10⁶ cells/well) were incubated in a 24-well plate containing 50 µg (50 µℓ) of the compound of the invention for 48 hours at 37°C in the presence of 5% carbon dioxide, and the supernatant of culture was samples as IL-1 induction supernatant. The IL-1 activity in the IL-1 induction supernatant was evaluated by measuring the growth inhibitory activity of IL-1 susceptible human melanoma cell A375 Met-Mix. The cells of A375 Met-Mix (2 × 10³ cells/0.1 mℓ/well) were suspended in RPMI 1640 medium containing 10% FCS, and the IL-1 induction supernatant (0.1 mℓ/well) diluted in steps was added and incubated in a 96-well plate for 96 hours at 37°C in the presence of 5% carbon dioxide. After incubation, the viable cells were fixed with methanol, and the cells were stained with 0.2% crystal violet, and the cells were dissolved with 1% SDS, and the absorbance at 550 nm was measured. […]

For the next series, the system named is TNF. The series can be described thus: TNF producing activity (TNF in serum measured by damage of L929 cells). In kind it is in vivo, ICR mouse. The conditions noted are these: Corynebacterium parvum primed mouse, 10 µg/mouse intravenously nine days later, blood sampled 90 minutes later; reciprocal of serum dilution showing 50% cytotoxicity. Here is the method:
The producing activity of TNF was evaluated in the following experiment.
The first stimulating agent, 5% suspension (0.2 mℓ physiological saline) of Corynebacterium parvum was intravenously administered to ICR mouse (female, 6 - 7 weeks old). Nine days later, as the second stimulating agent, 10 µg/mouse of the compound of the invention was intravenously administered, and 90 minutes later, 0.5 to 1 mℓ of blood was sampled from the retro-orbital plexus. After being allowed to stand at room temperature for 5 to 6 hours, the blood was centrifuged at 7200 × g for 5 minutes to separate the serum. The serum was incubated at 56°C for 30 minutes for inactivation before use in the following experiment.
The TNF activity in serum was determined by measuring the damage of L929 cells were adjusted to a concentration of 6 × 10⁴ cells/well (0.1 mℓ) on the culture medium of RPMI 1640 containing 10% of fetal bovine serum (FBS) and 2 µg/mℓ of actinomycin D, and were seeded on a 96-well plates. The serum was diluted in steps in the RPMI 1640 medium with 10% FBS, and added to the cell by 0.1 mℓ for each. After incubation for 48 hours at 37°C, the viable cells were fixed with methanol. After staining the cells with 0.2% crystal violet, the cells were dissolved in 1% sodium dodecyl sulfate (SDS), and the absorbance at 550 nm was measured. […]

The test system of the next series is neutrophils. The series is described as follows: O₂⁻ production stimulating activity in neutrophils. In kind it is cell-based, C3H/HeN mouse. To be noted: compound 10 µg/mℓ, 37°C for 60 minutes, then cytochrome C (80 µM) and FMLP (0.1 µM); SOD-inhibitable cytochrome C reduction. Here is the method:
The O₂⁻ production stimulating activity in neutrophils was evaluated in the following experimental system [see J. Exp. Med., Vol. 160, 1656 - 1671, 1984].
In the peritoneal cavity of C3H/HeN mouse (male, 8 - 9 weeks old), physiological saline containing 0.2% (w/v) of casein was administered. Three hours later, peritoneal exudate cells (90% or more of which are neutrophils) induced in the peritoneal cavity were collected. These cells (1.7 × 10⁶ cells/ml/tube) were incubated in the presence of the compound of the invention (10 µg/mℓ) at 37°C for 60 minutes, and cytochrome C (80 µM) and fomyl-methionyl-leucyl-phenylalanine (FMLP) (0.1 µM) were added. After reaction for 10 minutes at 37°C in the presence of or in the absence of superoxide dismutase (SOD), the SOD-inhibitable cytochrome C reduction quantity was calculated from the difference of absorbances at 550 nm and 541.7 nm and the molar absorption coefficient (16.5 × 10³). The O₂⁻ production stimulating activity was expressed in the following stimulation percentage. [formula] The compounds of the invention presented the activities as shown in the below table.

A further series deals with spleen cells. The series is described as follows: Mitogen activity (³H-thymidine uptake into spleen cells). In kind it is cell-based, C3H/HeN mouse. To be noted: 48 hours incubation. Here is the method:
The mitogen activity was evaluated in the following experiment [see Eur. J. Immunol., Vol. 14, 109 - 114, 1984].
The spleen of C3H/HeN mouse (male, 6 - 10 weeks old) was aseptically removed, rubbed and loosened in MEM, and passed through stainless steel mesh, and spleen cells were sampled. After hemolyzing the erythrocytes mixed in the spleen cells, the cells were suspended in RPMI 1640 medium containing 5% FBS and presented for the experiment.
The mitogen activity of the compound of the invention was evaluated by measuring the quantity of ³H-thymidine taken into the spleen cells treated with the compound of the invention. That is, the spleen cells adjusted to 5 × 10⁶ cells/well (100 µℓ) were seeded in a 96-well plate, and the compound of the invention (100 µℓ) at specified concentration was added to the spleen cells. After incubation for 48 hours at 37°C in the presence of 5% carbon dioxide, 1 µCi/well (50 µℓ) of ³H-thymidine was added to the incubated cells, which were incubated for further 4 hours. The cells were washed in phosphate buffer saline (PBS), and the titer of ³H-thymidine (radioactivity) taken in the cells was determined by liquid scintillation counter. […]

[2] abbreviates: compound concentration 10 µg/mℓ.

On to `CCCCCCCCCCCCCCC(CCCCCCCCCCCC)C(=O)O[C@H]1[C@H](OP(=O)(O)O)[C@@H](COC(=O)CCC(=O)OC)OC[C@@H]1NC(=O)C[C@H](O)CCCCCCCCCCC` (stereo partly shown) [Example 1], for which the LD50 at 168 h in series [1] came out at 0.0299 mg/kg. In the series with interleukin-1 (IL-1), this molecule came in with an IL-1 titer of 24 U/mℓ. For the same molecule, the “TNF titer in serum” value in the series with TNF is listed as 727800 U/mℓ. This molecule had a Stimulation percentage in the series on neutrophils of 363. The Simulation index is reported as 14.8 in the series on spleen cells (compound concentration 1 µg/mℓ) and 26.5 in the series on spleen cells (setting [2]).

In turn, `CCCCCCCCCCCCCCC(CCCCCCCCCCCC)C(=O)O[C@H]1[C@H](OP(=O)(O)O)[C@@H](COC(=O)C(C)(C)C)OC[C@@H]1NC(=O)C[C@H](O)CCCCCCCCCCC` (mixture of isomers) [Example 4, 1,5-Anhydro-2-deoxy-3-O-{(2RS)-2-dodecylhexadecanoyl}-2-{(3R)-3-hydroxytetradecanamido}-4-O-phosphono-6-O-pivaloyl-D-glucitol] displayed an IL-1 titer in the series with interleukin-1 (IL-1) of 16 U/mℓ. Further, the Stimulation percentage with neutrophils is given as 293. Moreover, the Simulation index is given as 5.1 in the series on spleen cells (compound concentration 1 µg/mℓ) and 19.6 in the series on spleen cells (setting [2]).

Consider `CCCCCCCCCCCCCCC(CCCCCCCCCCCC)C(=O)O[C@H]1[C@H](OP(=O)(O)O)[C@@H](CO)OC[C@@H]1NC(=O)C[C@H](O)CCCCCCCCCCC` (stereo partly shown) [Control compound, reference compound], for which the LD50 at 168 h in series [1] was 0.0028 mg/kg. In the series with interleukin-1 (IL-1), this molecule gave an IL-1 titer of 15 U/mℓ. Further, the “TNF titer in serum” value in the series on TNF was determined as 538900 U/mℓ. The Stimulation percentage in the series on neutrophils is on record as 80. The Simulation index in the series with spleen cells (compound concentration 1 µg/mℓ) is given as 2.7; in the series with spleen cells (setting [2]), 18.3.
